{"source": "patent US12606523B2", "about": "“Deuterated organic compounds and uses thereof” (ENGRAIL THERAPEUTICS, INC., priority 2022, dated 2026)", "key": {"[1]": {"target": "human Dopamine D2L receptor (Homo sapiens, UniProt P14416)", "sequence (P14416 whole entry)": "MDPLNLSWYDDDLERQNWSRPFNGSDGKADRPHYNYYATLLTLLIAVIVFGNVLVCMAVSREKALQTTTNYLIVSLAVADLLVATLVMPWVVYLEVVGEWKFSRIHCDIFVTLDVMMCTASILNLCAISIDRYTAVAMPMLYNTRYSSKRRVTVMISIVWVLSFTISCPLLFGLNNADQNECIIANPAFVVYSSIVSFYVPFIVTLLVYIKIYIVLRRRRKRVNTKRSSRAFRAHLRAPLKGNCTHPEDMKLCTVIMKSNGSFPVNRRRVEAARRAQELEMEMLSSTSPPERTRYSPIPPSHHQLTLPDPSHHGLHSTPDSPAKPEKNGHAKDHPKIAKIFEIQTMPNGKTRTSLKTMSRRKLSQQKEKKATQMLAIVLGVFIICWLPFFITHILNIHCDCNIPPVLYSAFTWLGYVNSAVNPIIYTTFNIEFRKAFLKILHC", "settings": "cAMP, % inhibition of reference agonist at EC80", "method": "(§1) SPA ^35S-GTPgS experiments are conducted with membrane preparations. IP-One and cAMP HTRF assays are conducted with recombinant cell lines.\n(§2) Agonist activity of test compounds is expressed as a percentage of the activity of the reference agonist at its EC100 concentration. Antagonist activity of the test compound is expressed as a percentage of the inhibition of reference agonist activity at its EC80 concentration."}, "[2]": {"target": "T1, human Serotonin 5-HT7A receptor (Homo sapiens, UniProt P34969)", "T1 construct": "expressed in transfected cells; host or cells: CHO-K1", "T1 sequence (P34969 1-445 isoform P34969-2)": "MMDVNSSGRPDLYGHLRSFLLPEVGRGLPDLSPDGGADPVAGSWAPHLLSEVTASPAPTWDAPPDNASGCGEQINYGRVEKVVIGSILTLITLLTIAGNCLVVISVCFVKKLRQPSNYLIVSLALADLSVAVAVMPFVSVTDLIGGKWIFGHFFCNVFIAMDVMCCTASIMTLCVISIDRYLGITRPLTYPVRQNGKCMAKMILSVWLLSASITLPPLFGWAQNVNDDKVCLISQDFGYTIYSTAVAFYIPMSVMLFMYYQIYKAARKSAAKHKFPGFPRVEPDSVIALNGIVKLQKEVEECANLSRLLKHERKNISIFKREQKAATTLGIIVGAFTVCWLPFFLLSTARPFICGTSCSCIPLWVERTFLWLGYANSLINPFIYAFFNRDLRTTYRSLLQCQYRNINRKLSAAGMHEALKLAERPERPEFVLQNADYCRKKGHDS", "assay": "Radioligand binding competition, filtration, [3H]-LSD, CHO-K1 membranes"}, "Sprague Dawley rats [3]": {"tested_on": "Sprague Dawley rats", "assay": "DOI-induced headshake response", "assay_type": "in vivo", "settings": "rat", "experimental": "Adult male Sprague Dawley rats are used. […] DOI (3 mg/kg) is dissolved in saline and administered IP at a dose volume of 1 ml/kg (10 minutes prior to test). Ketanserin (1 mg/kg) is dissolved in saline and injected IP 30 minutes prior to DOI at a dose volume of […].\nRats are then injected with DOI and headshakes are recorded 10 minutes after DOI injection for 10 minutes using video cameras. The headshake response is a rapid, rhythmic shaking of the head in a radial motion. Data is analyzed by ANOVA followed by post hoc analysis where appropriate."}, "5-HT1A": {"target": "T2, 5-HT1A (Homo sapiens, UniProt P08908)", "T2 sequence (P08908 1-422)": "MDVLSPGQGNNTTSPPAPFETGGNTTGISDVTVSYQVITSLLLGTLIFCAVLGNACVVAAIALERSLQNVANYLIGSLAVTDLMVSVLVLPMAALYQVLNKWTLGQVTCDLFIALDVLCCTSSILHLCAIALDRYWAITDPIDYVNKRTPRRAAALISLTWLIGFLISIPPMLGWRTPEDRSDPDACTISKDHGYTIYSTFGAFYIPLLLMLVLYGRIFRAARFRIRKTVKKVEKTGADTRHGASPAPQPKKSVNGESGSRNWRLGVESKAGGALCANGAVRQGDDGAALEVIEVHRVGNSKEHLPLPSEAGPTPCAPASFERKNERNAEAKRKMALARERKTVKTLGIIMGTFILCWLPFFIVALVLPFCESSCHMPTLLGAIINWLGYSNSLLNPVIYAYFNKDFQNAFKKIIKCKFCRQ", "assay": "Functional assay, antagonist mode (Table 6)", "assay_type": "cell-based", "settings": "read-out: 5-HT1A (antagonist mode) Emax"}, "Sprague Dawley rats [4]": {"tested_on": "Sprague Dawley rats", "assay": "Touchscreen-based rat Probabilistic Reward Task", "assay_type": "in vivo", "from_the_text": "The Probabilistic Reward Task (PRT) uses visual discrimination methodology to quantify reward responsiveness to both identify deficits and characterize drug-induced improvements.\nMale Sprague Dawley rats are used in the present study.\nBriefly, a custom-built Plexiglas chamber (25×30×35 cm) is situated in a sound- and light-attenuating enclosure (40×60×45 cm). A 17″ touch-sensitive screen (1739L, ELO TouchSystems, Menlo Park, CA) comprises the inside right-hand wall of the enclosure. An infusion pump (PHM-100-5, Med Associates, St. Albans, VT) outside the enclosure is used to deliver sweetened condensed milk solution into the shallow reservoir of a custom-designed aluminum receptacle. The receptacle is mounted 3 cm above the floor bars and centered on the left-hand inside wall. Both touchscreen and fluid reservoir are easily accessible to the subject. A speaker bar (NQ576AT, Hewlett-Packard, Palo Alto, CA) mounted above the touchscreen is used to emit audible feedback. All experimental events and data collection are programmed in E-Prime Professional 2.0 (Psychology Software Tools, Inc., Sharpsburg, PA). […]\nFollowing line-length discrimination training, probabilistic reinforcement schedules are introduced. […] These probabilistic contingencies are assessed across 5 consecutive sessions prior to initiation of drug testing. […]"}, "5-HT2B": {"target": "5-HT2B (Homo sapiens, UniProt P41595)", "sequence (P41595 whole entry)": "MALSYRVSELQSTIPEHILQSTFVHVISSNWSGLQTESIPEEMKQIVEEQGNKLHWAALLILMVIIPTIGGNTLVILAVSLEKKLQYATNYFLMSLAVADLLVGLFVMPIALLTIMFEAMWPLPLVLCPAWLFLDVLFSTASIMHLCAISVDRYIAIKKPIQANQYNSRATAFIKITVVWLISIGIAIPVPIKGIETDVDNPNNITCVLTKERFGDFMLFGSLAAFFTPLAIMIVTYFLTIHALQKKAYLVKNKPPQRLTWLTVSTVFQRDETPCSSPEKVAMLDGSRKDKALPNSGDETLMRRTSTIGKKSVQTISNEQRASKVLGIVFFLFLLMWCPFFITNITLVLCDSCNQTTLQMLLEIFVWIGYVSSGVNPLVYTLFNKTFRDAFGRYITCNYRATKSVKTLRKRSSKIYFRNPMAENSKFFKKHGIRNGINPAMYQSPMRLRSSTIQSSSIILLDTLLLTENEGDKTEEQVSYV", "assay": "Functional assay, antagonist mode (Table 6)", "assay_type": "cell-based"}, "Sprague Dawley rats [5]": {"tested_on": "Sprague Dawley rats", "settings": "rat, in vivo, po, 5 mg/kg", "from_the_text": "(§3) The Conditioned Avoidance Response (CAR) Test is an animal model screening for antipsychotic drugs."}, "Sprague Dawley rats [6]": {"tested_on": "Sprague Dawley rats", "assay": "Conditioned Avoidance Response test", "settings": "rat", "from_the_text": "as §3"}, "Sprague Dawley rats [7]": {"tested_on": "Sprague Dawley rats", "assay": "Headshake response", "assay_type": "in vivo, rat", "experimental": "Adult male Sprague Dawley rats are used. […] DOI (3 mg/kg) is dissolved in saline and administered IP at a dose volume of 1 ml/kg (10 minutes prior to test).\nThe headshake response is a rapid, rhythmic shaking of the head in a radial motion. Data are analyzed by ANOVA followed by post hoc analysis where appropriate."}, "[8]": {"target": "T1, human Serotonin 5-HT7A receptor", "assay": "cAMP HTRF functional assay, antagonist mode", "assay_type": "cell-based"}, "[9]": {"target": "T3, human Serotonin 5-HT2A receptor (Homo sapiens, UniProt P28223)", "T3 sequence (P28223 whole entry)": "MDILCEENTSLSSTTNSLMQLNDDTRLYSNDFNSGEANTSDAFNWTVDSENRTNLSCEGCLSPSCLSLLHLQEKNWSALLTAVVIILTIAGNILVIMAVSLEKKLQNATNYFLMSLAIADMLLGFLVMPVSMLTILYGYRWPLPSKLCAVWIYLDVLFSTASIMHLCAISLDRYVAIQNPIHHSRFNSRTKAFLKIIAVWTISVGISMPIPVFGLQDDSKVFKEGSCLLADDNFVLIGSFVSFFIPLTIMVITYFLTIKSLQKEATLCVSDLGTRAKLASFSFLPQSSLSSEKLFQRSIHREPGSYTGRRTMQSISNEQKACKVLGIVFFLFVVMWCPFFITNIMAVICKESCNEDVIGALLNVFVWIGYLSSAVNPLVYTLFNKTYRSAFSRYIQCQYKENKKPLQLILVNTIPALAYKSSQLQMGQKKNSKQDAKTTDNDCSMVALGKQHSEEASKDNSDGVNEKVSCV", "settings": "IP-one; % of reference agonist at EC100", "method": "as §1, §2"}, "[10]": {"target": "T4, human Serotonin 5-HT1A receptor (Homo sapiens, UniProt P08908)", "T4 sequence (P08908 1-422)": "T2 sequence (P08908 1-422)", "settings": "cAMP; % of reference agonist at EC100", "method": "as §1, §2"}, "[11]": {"target": "human Dopamine D3 receptor (Homo sapiens, UniProt P35462)", "sequence (P35462 whole entry)": "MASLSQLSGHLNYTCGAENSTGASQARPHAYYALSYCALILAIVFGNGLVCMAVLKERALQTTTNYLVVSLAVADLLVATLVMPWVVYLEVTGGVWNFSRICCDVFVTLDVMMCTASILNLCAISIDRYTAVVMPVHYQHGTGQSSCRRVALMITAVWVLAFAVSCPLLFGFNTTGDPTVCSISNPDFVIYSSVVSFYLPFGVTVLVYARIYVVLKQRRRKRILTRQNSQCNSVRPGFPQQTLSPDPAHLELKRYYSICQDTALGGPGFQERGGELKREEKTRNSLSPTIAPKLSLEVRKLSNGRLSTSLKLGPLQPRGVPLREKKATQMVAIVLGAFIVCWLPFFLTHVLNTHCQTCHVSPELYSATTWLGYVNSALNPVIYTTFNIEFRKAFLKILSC", "settings": "GTPγS; % inhibition of reference agonist at EC80", "method": "as §1, §2"}, "[12]": {"target": "T3, human Serotonin 5-HT2A receptor", "assay": "IP-One HTRF functional assay, antagonist mode", "assay_type": "cell-based", "parameters": "expressed in transfected cells; host or cells: CHO-K1", "settings": "% inhibition of reference agonist at EC80", "method": "(§4) IP-One and cAMP HTRF assays are conducted with recombinant cell lines.\nas §2"}, "[13]": {"target": "T5, human Dopamine D4.4 receptor (Homo sapiens, UniProt P21917)", "T5 sequence (P21917 1-419)": "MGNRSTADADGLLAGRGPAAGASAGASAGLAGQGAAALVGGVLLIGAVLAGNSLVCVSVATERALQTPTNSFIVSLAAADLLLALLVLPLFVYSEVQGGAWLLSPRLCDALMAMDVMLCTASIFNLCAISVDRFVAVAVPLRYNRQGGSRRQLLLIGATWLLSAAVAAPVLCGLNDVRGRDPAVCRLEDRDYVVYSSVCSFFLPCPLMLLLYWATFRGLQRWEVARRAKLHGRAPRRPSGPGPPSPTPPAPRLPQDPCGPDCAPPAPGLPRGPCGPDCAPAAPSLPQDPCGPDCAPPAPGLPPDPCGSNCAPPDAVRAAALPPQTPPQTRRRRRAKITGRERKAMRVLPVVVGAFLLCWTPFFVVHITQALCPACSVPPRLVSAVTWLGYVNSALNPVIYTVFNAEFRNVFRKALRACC", "settings": "cAMP; % inhibition of reference agonist at EC80", "method": "as §1, §2"}, "[14]": {"target": "human Dopamine D2S receptor (Homo sapiens, UniProt P14416)", "sequence (P14416 1-414 isoform P14416-2)": "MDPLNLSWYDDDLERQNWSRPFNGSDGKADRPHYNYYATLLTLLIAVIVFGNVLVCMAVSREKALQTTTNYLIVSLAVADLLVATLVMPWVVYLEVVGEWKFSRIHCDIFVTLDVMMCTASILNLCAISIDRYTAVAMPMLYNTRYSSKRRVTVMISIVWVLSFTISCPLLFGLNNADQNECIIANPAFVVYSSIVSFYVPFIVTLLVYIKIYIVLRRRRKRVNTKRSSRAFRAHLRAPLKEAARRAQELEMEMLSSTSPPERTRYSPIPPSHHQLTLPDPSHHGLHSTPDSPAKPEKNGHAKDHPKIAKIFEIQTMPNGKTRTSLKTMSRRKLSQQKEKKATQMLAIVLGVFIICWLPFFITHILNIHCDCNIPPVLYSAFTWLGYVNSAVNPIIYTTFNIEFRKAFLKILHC", "settings": "cAMP, % inhibition of reference agonist at EC80", "method": "as §4, §2"}, "[15]": {"settings": "2.5 and 5 mg/kg orally 4 hours prior to test"}, "[16]": {"settings": "0.5 mg/kg i.p. 30 minutes prior to test"}}}
{"smiles": "[2H]C([2H])([2H])Nc1cc(OC)c(C(=O)N[C@H]2CCN(C([2H])([2H])c3ccccc3)[C@H]2C)cc1Cl", "note": "[Example A1, 5-Chloro-N-((2S,3S)-1-(dideutero(phenyl)methyl)-2-methylpyrrolidin-3-yl)-2-methoxy-4-(trideuteromethylamino)benzamide]", "values": [{"measurement": "D2 (antagonist mode) Top % Inhibition at maximal concentration, D2L", "setting": "[1]", "result": "cAMP 81 (D2L) %"}, {"measurement": "Ki", "setting": "[2]", "result": 74.4, "unit": "nM"}, {"measurement": "DOI-induced headshake responses", "setting": "Sprague Dawley rats [3]; 1 mg/kg PO 4 hours prior, DOI 3 mg/kg IP, p=0.051", "result": "non-significant trend to decreasing"}, {"measurement": "DOI-induced headshake responses", "setting": "Sprague Dawley rats [3]; 5 and 10 mg/kg PO 4 hours prior, DOI 3 mg/kg IP", "result": "decrease"}, {"measurement": "Emax", "setting": "5-HT1A", "result": 63, "unit": "%"}, {"measurement": "log b vs vehicle, Cohen's d", "setting": "Sprague Dawley rats [4]; 0.5 mg/kg orally, n=8, paired t-test p=0.006", "result": 1.21}, {"measurement": "log b vs vehicle, Cohen's d", "setting": "Sprague Dawley rats [4]; 1 mg/kg orally, n=8, paired t-test p=0.04", "result": 0.75}, {"measurement": "Emax", "setting": "5-HT2B", "result": 92, "unit": "%"}, {"measurement": "escape failures compared to vehicle", "setting": "Sprague Dawley rats [5]", "result": "increase"}, {"measurement": "number of avoidance responses compared to vehicle", "setting": "Sprague Dawley rats [6]; [15]", "result": "significantly decrease"}, {"measurement": "percent avoidance compared to vehicle", "setting": "Sprague Dawley rats [6]; [15]", "result": "significantly decrease"}, {"measurement": "number of headshakes compared to vehicle", "setting": "Sprague Dawley rats [7]; rat, 1, 5 and 10 mg/kg PO 4 hours prior to test", "result": "no significant increase"}, {"measurement": "IC50", "setting": "[8]", "result": 2240, "unit": "nM"}]}
{"smiles": "CNc1cc(OC)c(C(=O)N[C@H]2CCN(Cc3ccccc3)[C@H]2C)cc1Cl", "note": "(racemic) [Nemonapride, (±)-cis-N-(1-Benzyl-2-methylpyrrolidin-3-yl)-5-chloro-2-methoxy-4-methylaminobenzamide]", "values": [{"measurement": "5-HT2A (agonist mode) Top % Activation at maximal concentration", "setting": "[9]", "result": "IP-one 48%"}, {"measurement": "5-HT1A (agonist mode) Top % Activation at maximal concentration", "setting": "[10]", "result": "cAMP 52%"}]}
{"smiles": "COc1cc(CC(C)N)c(OC)cc1I", "note": "(centres unmarked) [DOI, reference compound]", "values": [{"measurement": "number of headshakes compared to vehicle", "setting": "Sprague Dawley rats [3]; DOI 3 mg/kg IP", "result": "significantly increases"}, {"measurement": "number of headshakes compared to vehicle", "setting": "Sprague Dawley rats [7]; rat, 3 mg/kg IP 10 minutes prior to test", "result": "significantly increases"}]}
{"smiles": "O=C(c1ccc(F)cc1)C1CCN(CCn2c(=O)[nH]c3ccccc3c2=O)CC1", "note": "[Ketanserin, reference compound]", "values": [{"measurement": "DOI-induced headshake responses", "setting": "Sprague Dawley rats [3]; 1 mg/kg IP 30 minutes prior to DOI 3 mg/kg IP", "result": "decrease"}]}
{"smiles": "Cc1nc2n(c(=O)c1CCN1CCC(c3noc4cc(F)ccc34)CC1)CCCC2", "note": "[risperidone, Risperidone, reference compound]", "values": [{"measurement": "number of avoidance responses compared to vehicle", "setting": "Sprague Dawley rats [6]; [16]", "result": "significantly decrease"}, {"measurement": "percent avoidance compared to vehicle", "setting": "Sprague Dawley rats [6]; [16]", "result": "significantly decrease"}]}
{"smiles": "CNc1cc(OC)c(C(=O)N[C@H]2CCN(Cc3ccccc3)[C@H]2C)cc1Cl", "note": "[cis (S,S) nemonapride, N-[(2S,3S)-1-benzyl-2-methylpyrrolidin-3-yl]-5-chloro-2-methoxy-4-(methylamino)benzamide]", "values": [{"measurement": "D3 (antagonist mode) Top % Inhibition at maximal concentration", "setting": "[11]", "result": "GTPγS 117%"}, {"measurement": "5-HT2A (antagonist mode) Top % Inhibition at maximal concentration", "setting": "[12]", "result": "IP-one 52%"}, {"measurement": "D2 (antagonist mode) Top % Inhibition at maximal concentration, D2L", "setting": "[1]", "result": "cAMP 84 (D2L) %"}, {"measurement": "IC50", "setting": "[2]", "result": 167, "unit": "nM"}, {"measurement": "Ki", "setting": "[2]", "result": 117, "unit": "nM"}, {"measurement": "D4 (antagonist mode) Top % Inhibition at maximal concentration", "setting": "[13]", "result": "cAMP 67%"}, {"measurement": "5-HT2A (agonist mode) Top % Activation at maximal concentration", "setting": "[9]", "result": "IP-one 29%"}, {"measurement": "D2 (antagonist mode) Top % Inhibition at maximal concentration, D2S", "setting": "[14]", "result": "cAMP 88 (D2S) %"}, {"measurement": "5-HT1A (agonist mode) Top % Activation at maximal concentration", "setting": "[10]", "result": "cAMP 17%"}]}
